Values quoted from earlier work as cited in article PMC2895553 (Journal of the American Chemical Society, 2010).

Tested on: αvβ3 integrin

cyclo(-Arg-Gly-Asp-DPhe-(Me)Val-] [Cilengitide]
activity as inhibitor for the αvβ3 integrin: 0.5 nM
